These results are taken from publication PMC11784839, “Monoaminergic neurotransmitters are bimodal effectors of tau aggregation” (Science Advances, 2025).

For the assay, the target named is tau (Homo sapiens, UniProt P10636). Nature of the assay: MCE Phenols Library screening, tau biosensor cell seeding assay (AvZ). It is filed as cell-based. The following applies: for Z repl 1 / Z Repl 2: Z score; for Z repl 1 / raw data 1: replicate 1; for Z Repl 2 / raw data 2: replicate 2; for AvZ (average z score of seeding, SDs from the mean level of seeding): 10 μM phenol in cell cultures, AD brain homogenate preincubated 16 hours, two biological replicates, positive = catalyzes seeding, negative = inhibits.
Sequence of tau (P10636 623-695 limits assumed): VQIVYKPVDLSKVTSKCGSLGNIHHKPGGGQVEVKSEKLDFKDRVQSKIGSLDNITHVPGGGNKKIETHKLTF

[1] abbreviates: average Z score of the two replicates, tau seeding.
Where [2] appears, read: average Z score of the two replicates, MCE Phenols Library screen.
The mark [3] stands for this setting: average puncta of the two replicates.

In the case of `CN(C)[C@@H]1C(O)=C(C(N)=O)C(=O)[C@@]2(O)C(O)=C3C(=O)c4c(O)cccc4[C@@](C)(O)[C@H]3C[C@@H]12.Cl` [Tetracycline (hydrochloride)], the “Z repl 1” value stood at 0.657 and the “Z Repl 2” value is 0.47. Further, under setting [1], the “av Z” value is reported as 0.563. The molecule further came in with an av puncta (average of raw data 1 and 2) of 26010.3. For the same molecule, where the note is “puncta”, the “raw data 1” value was found to be 34234.2 and the “raw data 2” value was determined as 17786.4.

In the case of `COc1cc(CCC(=O)CC(=O)CCc2ccc(O)c(OC)c2)ccc1O` [Tetrahydrocurcumin], the “Z repl 1” value came out at 0.298 and the “Z Repl 2” value is -0.72. The “av Z” value under setting [2] is reported as -0.211. Besides, the av puncta under setting [3] turned out to be 17498. Further, for the setting “raw puncta”, the “raw data 1” value amounted to 29921.4 and the “raw data 2” value worked out at 5074.48.

On to `COc1ccc(/C=C/C(=O)C(C)(C)C(=O)/C=C/c2ccc(OC)c(OC)c2)cc1OC` [Tetramethylcurcumin], for which the “Z repl 1” value is reported as -1.086 and the “Z Repl 2” value was -0.943. In addition, the “av Z” value under setting [2] is -1.014. The molecule also returned an av puncta (average of raw data 1 and 2) of 8003.14. In addition, under “puncta”, the “raw data 1” value was 13309.5 and the “raw data 2” value turned out to be 2696.76.

`O=C(O[C@@H]1Cc2c(O)cc(O)cc2O[C@@H]1c1cc(O)c(O)c2c(=O)c(O)cc([C@H]3Oc4cc(O)cc(O)c4C[C@H]3O)cc12)c1cc(O)c(O)c(O)c1` [Theaflavin-3'-gallate]: the “Z repl 1” value is -2.15 and the “Z Repl 2” value was -1.186. Where the note is “average of raw data 1 and 2”, this molecule showed an av puncta of 320.554. Also, for the setting “puncta”, the “raw data 1” value is listed as 542.499 and the “raw data 2” value was determined as 98.608.

On to `O=C(O[C@@H]1Cc2c(O)cc(O)cc2O[C@@H]1c1cc(O)c(=O)c2c(O)c(O)cc([C@H]3Oc4cc(O)cc(O)c4C[C@H]3O)c2c1)c1cc(O)c(O)c(O)c1` [Theaflavin-3-gallate], for which the “Z repl 1” value is on record as -2.035 and the “Z Repl 2” value was -1.192. Moreover, the “av Z” value under setting [2] is on record as -1.614. For the same molecule, the av puncta (average of raw data 1 and 2) is listed as 972.721. In addition, under “puncta”, the “raw data 1” value worked out at 1914.49 and the “raw data 2” value was found to be 30.952.

Take `O=c1c(O)cc([C@H]2Oc3cc(O)cc(O)c3C[C@H]2O)cc2c([C@H]3Oc4cc(O)cc(O)c4C[C@H]3O)cc(O)c(O)c12` [Theaflavin]: the “Z repl 1” value is -0.67. For the same molecule, the “av Z” value under setting [2] is -0.921. The av puncta (average of raw data 1 and 2) was determined as 9279.59. Under “puncta”, the “raw data 1” value is 18310.3 and the “raw data 2” value is given as 248.899.

`O=C(O[C@@H]1[C@@H](O)[C@H](Oc2cc(O)c(C(=O)CCc3ccccc3)c(O)c2)O[C@@H]2COC(=O)c3cc(O)c(O)c(O)c3-c3c(cc(O)c(O)c3O)C(=O)O[C@@H]12)c1cc(O)c(O)c(O)c1` [Thonningianin A]: the “Z repl 1” value is listed as -1.226 and the “Z Repl 2” value is -0.652. For the same molecule, under setting [2], the “av Z” value was -0.939. Besides, the av puncta (average of raw data 1 and 2) is recorded as 8713.6. Under “puncta”, the “raw data 1” value is on record as 11629.9 and the “raw data 2” value is given as 5797.27.

In the case of `CC(=O)Oc1ccc(/C=C/c2cc(OC(C)=O)cc(OC(C)=O)c2)cc1` [Triacetylresveratrol], the “Z repl 1” value is on record as -0.969 and the “Z Repl 2” value is on record as -0.064. Besides, the “av Z” value under setting [2] was -0.517. The molecule also had an av puncta under setting [3] of 13396.5. Besides, for the setting “puncta”, the “raw data 1” value is recorded as 14710.4 and the “raw data 2” value is reported as 12082.6.

Consider `O=C(/C=C/c1ccc(O)cc1)OC[C@H]1O[C@@H](Oc2c(-c3ccc(O)cc3)oc3cc(O)cc(O)c3c2=O)[C@H](O)[C@@H](O)[C@@H]1O` [Tribuloside], for which the “Z repl 1” value is -0.731 and the “Z Repl 2” value was -0.145. Besides, the “av Z” value under setting [2] is reported as -0.438. The molecule also returned an av puncta under setting [3] of 14393.7. For the same molecule, under “raw puncta”, the “raw data 1” value stood at 17568.8 and the “raw data 2” value was 11218.6.

Turning to `O=C(CCc1ccc(O)cc1)c1c(O)cc(O[C@@H]2O[C@H](CO)[C@@H](O)[C@H](O)[C@H]2O)cc1O` [Trilobatin], the “Z repl 1” value is given as 0.764 and the “Z Repl 2” value is given as -0.24. Further, under setting [1], the “av Z” value came to 0.262. For the setting “average of raw data 1 and 2”, this molecule displayed an av puncta of 22862. Besides, for the setting “puncta”, the “raw data 1” value was found to be 35522.1 and the “raw data 2” value is 10201.8.

For the molecule `CC(C)c1ccc2c(c1O)CC[C@H]1C3=C(CC[C@]21C)C(=O)OC3` [Triptophenolide], the “Z repl 1” value worked out at 0.422 and the “Z Repl 2” value stood at 0.028. Under setting [1], the “av Z” value is reported as 0.225. Moreover, the av puncta (average of raw data 1 and 2) was found to be 22243.1. Moreover, where the note is “puncta”, the “raw data 1” value was 31418 and the “raw data 2” value is reported as 13068.1.

For `C[C@@H]1O[C@@H](OC[C@H]2O[C@@H](Oc3c(-c4ccc(OCCO)c(OCCO)c4)oc4cc(OCCO)cc(O)c4c3=O)[C@H](O)[C@@H](O)[C@@H]2O)[C@H](O)[C@H](O)[C@H]1O` [Troxerutin], the “Z repl 1” value is given as -0.342 and the “Z Repl 2” value is listed as -0.568. Further, the “av Z” value under setting [2] is on record as -0.455. The same molecule gave an av puncta under setting [3] of 14474.7. In addition, for the setting “puncta”, the “raw data 1” value is on record as 22246.4 and the “raw data 2” value was 6703.04.

On to `COc1cc(-c2oc3cc(O)cc(O)c3c(=O)c2O[C@@H]2O[C@H](CO[C@@H]3O[C@@H](C)[C@H](O)[C@@H](O)[C@H]3O)[C@@H](O)[C@H](O)[C@H]2O[C@@H]2O[C@@H](C)[C@H](O)[C@@H](O)[C@H]2O)ccc1O` [Typhaneoside], for which the “Z repl 1” value is -0.172 and the “Z Repl 2” value is on record as -0.068. The “av Z” value (average Z score of two replicates, Phenols Library screen) is listed as -0.12. The av puncta (average of raw data 1 and 2) turned out to be 18163.3. Also, under “puncta”, the “raw data 1” value is listed as 24283.7 and the “raw data 2” value is recorded as 12042.9.

In the case of `NCCc1ccc(O)cc1` [Tyramine], the “AvZ (average z score of seeding, SDs from the mean level of seeding)” value (“AvZ” below) came out at 0.07; the “Z repl 1” value is -0.244; the “Z Repl 2” value is 0.385. The same molecule displayed an av puncta (average of raw data 1 and 2) of 20147.8. Where the note is “puncta”, the “raw data 1” value was found to be 23421.7 and the “raw data 2” value is on record as 16873.8.

For `OCCc1ccc(O)cc1` [Tyrosol], the “AvZ” value is reported as 0.05; the “Z repl 1” value was -0.193; the “Z Repl 2” value is on record as 0.294. This molecule returned an av puncta (average of raw data 1 and 2) of 19965.6. Under “puncta”, the “raw data 1” value was determined as 24027 and the “raw data 2” value is reported as 15904.1.

`O=c1ccc2ccc(O)cc2o1` [Umbelliferone]: the “Z repl 1” value was -1.269 and the “Z Repl 2” value is on record as -0.533. The “av Z” value under setting [2] is recorded as -0.901. The molecule further came in with an av puncta (average of raw data 1 and 2) of 9095.02. Further, for the setting “puncta”, the “raw data 1” value is listed as 11115.4 and the “raw data 2” value was 7074.65.

As for `O=c1oc2cc(O)ccc2c2cc(O)c(O)cc12` [Urolithin C], the “Z repl 1” value is -0.755 and the “Z Repl 2” value is reported as -0.316. In addition, under setting [2], the “av Z” value was -0.535. Further, the av puncta under setting [3] is 13342.4. Besides, under “puncta”, the “raw data 1” value amounted to 17290 and the “raw data 2” value was 9394.79.

In the case of `CC(=O)c1c(O)c(C)c(O)c2c1OC1=CC(=O)C(C(C)=O)C(=O)C12C` (stereo not shown) [Usnic acid], the “Z repl 1” value worked out at 1.459 and the “Z Repl 2” value was 0.735. For the same molecule, the “av Z” value (average Z score of the two replicates, tau biosensor seeding, MCE Phenols Library screen) is 1.097. Moreover, the av puncta (average of raw data 1 and 2) stood at 32238.5. Under “puncta”, the “raw data 1” value was determined as 43858.6 and the “raw data 2” value was 20618.4.

With `COc1cc(CO)ccc1O` [Vanillyl alcohol], the “AvZ” value is on record as -0.269; the “Z repl 1” value was 0.198; the “Z Repl 2” value is reported as -0.736. For the same molecule, under setting [3], the av puncta is 16813.8. Also, for the setting “raw puncta”, the “raw data 1” value worked out at 28727.3 and the “raw data 2” value worked out at 4900.36.

As to `COc1cc(CC(=O)C(=O)O)ccc1O` [Vanilpyruvic acid], the “AvZ” value is on record as -0.352; the “Z repl 1” value is recorded as 0.039; the “Z Repl 2” value is on record as -0.742. The molecule further had an av puncta under setting [3] of 15824.3. Further, under “raw puncta”, the “raw data 1” value worked out at 26811.5 and the “raw data 2” value was 4837.1.

As for `C[C@@H]1O[C@@H](O[C@@H]2[C@@H](O)[C@H](OCCc3ccc(O)c(O)c3)O[C@H](CO)[C@H]2OC(=O)/C=C/c2ccc(O)c(O)c2)[C@H](O)[C@H](O)[C@H]1O` [Verbascoside], the “Z repl 1” value was -0.258 and the “Z Repl 2” value is given as -1.055. Further, under setting [2], the “av Z” value is on record as -0.656. Further, the av puncta under setting [3] was found to be 12378.6. For the setting “puncta”, the “raw data 1” value turned out to be 23255.9 and the “raw data 2” value is recorded as 1501.28.

Turning to `O=c1cc(-c2ccc(O)cc2)oc2c([C@@H]3O[C@H](CO)[C@@H](O)[C@H](O)[C@H]3O)c(O)c([C@@H]3OC[C@@H](O)[C@H](O)[C@H]3O)c(O)c12` [Vicenin-1], the “Z repl 1” value is listed as 0.022 and the “Z Repl 2” value is listed as -0.802. Besides, the “av Z” value under setting [2] is -0.39. Moreover, under setting [3], the av puncta turned out to be 15407.7. For the same molecule, where the note is “raw puncta”, the “raw data 1” value is recorded as 26610.5 and the “raw data 2” value stood at 4204.9.

Turning to `C[C@@H]1O[C@@H](Oc2cc(O)c3c(=O)c(O)c(-c4ccc(O)c(O)c4)oc3c2)[C@H](O)[C@H](O)[C@H]1O` [Vincetoxicoside B], the “Z repl 1” value was -0.893 and the “Z Repl 2” value is -0.479. In addition, the “av Z” value under setting [2] is recorded as -0.686. The molecule further yielded an av puncta under setting [3] of 11642.8. Where the note is “puncta”, the “raw data 1” value stood at 15632.1 and the “raw data 2” value is listed as 7653.58.

For `C[C@@H]1O[C@@H](O[C@@H]2[C@@H](O)[C@H](O)[C@@H](CO)O[C@H]2c2c(O)cc(O)c3c(=O)cc(-c4ccc(O)cc4)oc23)[C@H](O)[C@H](O)[C@H]1O` [Vitexin-2"-O-rhamnoside], the “Z repl 1” value turned out to be 0.246 and the “Z Repl 2” value was -0.753. Besides, the “av Z” value under setting [2] is on record as -0.253. The molecule further registered an av puncta under setting [3] of 17015.1. Under “raw puncta”, the “raw data 1” value is 29301.6 and the “raw data 2” value is listed as 4728.59.
